Experimental data reported in paper PMC8989888, “Development of optimized drug-like small molecule inhibitors of the SARS-CoV-2 3CL protease for treatment of COVID-19” (Nature Communications, 2022).
Where two headings read alike, the source gives them in different places.

Biological target: SARS-CoV-2 3CL protease (Severe acute respiratory syndrome coronavirus 2, UniProt P0DTD1)
Format: biochemical
Design: Avg: unit not given here
Conditions: for Inhibition at 10 µM: 10 µM compound; for Inhibition at 100 µM: 100 µM compound; for IC50 / LogIC50: Figure S1 and S2
[1] = Conc 10 µM, mean response (inhibition) of dose-response curve
[2] = Conc 15 µM, mean response (inhibition) of dose-response curve
[3] = Conc 20 µM, mean response (inhibition) of dose-response curve
[4] = Conc 50 µM, mean response (inhibition) of dose-response curve
[5] = Conc 100 µM, mean response (inhibition) of dose-response curve
[6] = Conc 200 µM, mean response (inhibition) of dose-response curve
[7] = dose-response curve of fragment hit
[8] = log of IC50 (µM), dose-response curve fit

SMILES	Inhibition at 10 µM	Inhibition at 100 µM	Avg [1]	Avg [2]	Avg [3]	Avg [4]	Avg [5]	Avg [6]	IC50 [7]	LogIC50 (log10 of IC50 in µM)	Avg (Conc 10 µM)	Avg (Conc 15 µM)	Avg (Conc 20 µM)	Avg (Conc 50 µM)	Avg (Conc 100 µM)	Avg (Conc 200 µM)	IC50 (dose-response curve fit)	LogIC50 [8]
Cc1ccc(CNC(=O)n2ccnc2)cc1 [Z295462498]	21%	100%	21	37.9	33.6	84.1	101.3	104	26.7 µM	1.426	–	–	–	–	–	–	–	–
N#Cc1ccc(S)nc1 [Z367678594]	16%	100%	16.1	29.5	30.5	107.9	110.6	113.2	25 µM	1.398	–	–	–	–	–	–	–	–
O=C(CCl)N1CCc2[nH]c3ccccc3c2C1 [Z398556976]	43%	100%	42.8	70.8	74.6	93.9	100.2	98.1	11 µM	1.042	–	–	–	–	–	–	–	–
CSc1cc(C(=O)CCl)ccc1NC(C)=O [Z449369022]	–	95%	12.5	32	31	67.6	95.3	107.3	31 µM	1.491	–	–	–	–	–	–	–	–
NC(=O)c1csc(C(=O)CCl)c1 [Z802671642]	16%	80%	15.9	29.5	35.2	47.6	80.1	92.5	42.6 µM	1.6293	–	–	–	–	–	–	–	–
NC(=O)CCc1ccc(C(=O)CCl)cc1 [Z1203664423]	22%	88%	–	–	–	–	–	–	–	–	21.6	41.7	49.5	69.9	88.3	103.3	22 µM	1.341
O=C(NCC1CCCCC1O)c1cccnc1S (stereo not shown) [Z1252265470]	0%	100%	–	–	–	–	–	–	–	–	-0.7	22.4	33.5	82	99.6	99.1	25.5 µM	1.406
COC(C)(C)CNC(=O)c1cccnc1S [Z1274680193]	27%	80%	–	–	–	–	–	–	–	–	27.3	54.6	67.5	90.4	80.1	60.9	14.2 µM	1.153
O=C(NCCC(O)c1ccccc1)c1cccnc1S (stereo not shown) [Z1275438373]	13%	100%	–	–	–	–	–	–	–	–	12.5	9.1	42.4	99.1	101.3	95.1	20.2 µM	1.3058
O=C(NCC(CO)c1ccccc1)c1cccnc1S (stereo not shown) [Z1346056045]	2%	96%	–	–	–	–	–	–	–	–	2.4	13.5	19.9	74.2	95.6	87.7	32.4 µM	1.51
CCNC(=O)N1CCC(NC(=O)c2cccnc2S)C1 (stereo not shown) [Z1421663935]	4%	100%	–	–	–	–	–	–	–	–	3.7	20	18.3	97.3	103.3	100	28 µM	1.447
CCC(=O)N1CCC(NC(=O)c2cccnc2S)C1 (stereo not shown) [Z1429050837]	24%	100%	–	–	–	–	–	–	–	–	24.1	26.1	20.9	87.9	102.1	100.5	42.3 µM	1.626
Cc1nc(CCNC(=O)c2cccnc2S)sc1C [Z1432661577]	10%	100%	–	–	–	–	–	–	–	–	10.2	5.7	26.8	103	104.1	108.4	20.8 µM	1.319
COC1(CNC(=O)c2cccnc2S)CCOCC1 [Z1483040147]	0%	90%	–	–	–	–	–	–	–	–	-6.5	-1.8	13.4	61.8	90	90.2	39.7 µM	1.599
